Legend:
[1] = biological target: Tyrosine-protein kinase HCK (Homo sapiens, UniProt P08631)
[2] = biological target: Tyrosine-protein kinase Fer (Homo sapiens, UniProt P16591)
[3] = biological target: T1, Ephrin type-A receptor 8 (Homo sapiens, UniProt P29322)
T1 sequence (P29322 whole entry): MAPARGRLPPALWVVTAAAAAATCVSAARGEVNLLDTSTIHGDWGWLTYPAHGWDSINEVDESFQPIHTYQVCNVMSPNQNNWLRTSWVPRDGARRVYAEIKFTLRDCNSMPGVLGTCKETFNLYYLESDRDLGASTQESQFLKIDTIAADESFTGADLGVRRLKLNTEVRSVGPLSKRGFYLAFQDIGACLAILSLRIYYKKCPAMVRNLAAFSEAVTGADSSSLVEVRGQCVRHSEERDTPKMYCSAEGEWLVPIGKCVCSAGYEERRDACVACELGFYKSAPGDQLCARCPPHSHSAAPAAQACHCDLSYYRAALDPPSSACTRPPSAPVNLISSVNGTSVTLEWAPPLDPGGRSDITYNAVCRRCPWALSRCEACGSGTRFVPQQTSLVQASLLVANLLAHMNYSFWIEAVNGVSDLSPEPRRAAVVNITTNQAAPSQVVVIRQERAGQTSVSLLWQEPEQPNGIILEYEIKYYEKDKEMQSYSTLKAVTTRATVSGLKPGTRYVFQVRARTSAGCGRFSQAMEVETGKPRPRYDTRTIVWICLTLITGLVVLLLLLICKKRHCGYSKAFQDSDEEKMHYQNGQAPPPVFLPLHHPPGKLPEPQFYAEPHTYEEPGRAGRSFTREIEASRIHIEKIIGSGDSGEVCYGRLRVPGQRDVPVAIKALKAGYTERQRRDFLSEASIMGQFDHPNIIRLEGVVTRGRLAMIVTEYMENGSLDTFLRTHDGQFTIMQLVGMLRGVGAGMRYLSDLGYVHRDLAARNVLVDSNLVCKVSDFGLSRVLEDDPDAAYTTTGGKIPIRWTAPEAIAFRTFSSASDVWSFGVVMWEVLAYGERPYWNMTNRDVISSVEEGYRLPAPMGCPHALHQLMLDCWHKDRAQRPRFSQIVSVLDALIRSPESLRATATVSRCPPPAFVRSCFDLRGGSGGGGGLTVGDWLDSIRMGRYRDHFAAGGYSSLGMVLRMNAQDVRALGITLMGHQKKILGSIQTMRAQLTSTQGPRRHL

[4] = biological target: T2, Serine/threonine-protein kinase PLK4 (Homo sapiens, UniProt O00444)
T2 sequence (O00444 whole entry): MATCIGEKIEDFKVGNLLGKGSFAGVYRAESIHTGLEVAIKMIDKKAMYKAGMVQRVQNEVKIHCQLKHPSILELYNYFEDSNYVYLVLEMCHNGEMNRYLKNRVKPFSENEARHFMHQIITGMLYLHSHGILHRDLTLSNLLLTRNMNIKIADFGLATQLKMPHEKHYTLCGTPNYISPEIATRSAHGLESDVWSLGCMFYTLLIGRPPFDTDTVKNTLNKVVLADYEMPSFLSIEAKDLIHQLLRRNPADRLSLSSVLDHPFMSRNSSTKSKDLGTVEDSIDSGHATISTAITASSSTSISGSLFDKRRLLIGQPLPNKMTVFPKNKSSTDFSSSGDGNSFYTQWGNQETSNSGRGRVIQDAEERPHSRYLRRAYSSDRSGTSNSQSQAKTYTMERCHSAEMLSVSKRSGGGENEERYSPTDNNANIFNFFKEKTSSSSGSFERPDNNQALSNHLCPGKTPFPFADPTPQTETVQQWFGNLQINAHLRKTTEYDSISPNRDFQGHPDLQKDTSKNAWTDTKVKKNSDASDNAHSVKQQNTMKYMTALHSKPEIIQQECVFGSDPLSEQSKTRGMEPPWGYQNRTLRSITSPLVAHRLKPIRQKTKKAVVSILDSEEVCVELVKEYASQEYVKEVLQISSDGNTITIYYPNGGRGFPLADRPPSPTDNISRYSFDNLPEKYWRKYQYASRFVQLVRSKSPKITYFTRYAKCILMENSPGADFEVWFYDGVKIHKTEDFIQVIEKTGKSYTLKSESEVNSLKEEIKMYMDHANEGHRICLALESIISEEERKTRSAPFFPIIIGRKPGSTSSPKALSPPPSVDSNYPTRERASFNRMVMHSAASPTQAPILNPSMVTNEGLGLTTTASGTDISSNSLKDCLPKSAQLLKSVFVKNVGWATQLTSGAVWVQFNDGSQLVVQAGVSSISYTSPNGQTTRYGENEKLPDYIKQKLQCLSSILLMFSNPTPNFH

[5] = biological target: Tyrosine-protein kinase Lyn (Homo sapiens, UniProt P07948)
[6] = biological target: Calcium/calmodulin-dependent protein kinase kinase 1 (Homo sapiens, UniProt Q8N5S9)
[7] = biological target: Ephrin type-A receptor 7 (Homo sapiens, UniProt Q15375)
[8] = biological target: Tyrosine-protein kinase JAK2 (Homo sapiens, UniProt O60674)
[9] = biological target: Receptor-interacting serine/threonine-protein kinase 2 (Homo sapiens, UniProt O43353)

Measured: Kd

Tyrosine-protein kinase JAK2, sequence (O60674 whole entry): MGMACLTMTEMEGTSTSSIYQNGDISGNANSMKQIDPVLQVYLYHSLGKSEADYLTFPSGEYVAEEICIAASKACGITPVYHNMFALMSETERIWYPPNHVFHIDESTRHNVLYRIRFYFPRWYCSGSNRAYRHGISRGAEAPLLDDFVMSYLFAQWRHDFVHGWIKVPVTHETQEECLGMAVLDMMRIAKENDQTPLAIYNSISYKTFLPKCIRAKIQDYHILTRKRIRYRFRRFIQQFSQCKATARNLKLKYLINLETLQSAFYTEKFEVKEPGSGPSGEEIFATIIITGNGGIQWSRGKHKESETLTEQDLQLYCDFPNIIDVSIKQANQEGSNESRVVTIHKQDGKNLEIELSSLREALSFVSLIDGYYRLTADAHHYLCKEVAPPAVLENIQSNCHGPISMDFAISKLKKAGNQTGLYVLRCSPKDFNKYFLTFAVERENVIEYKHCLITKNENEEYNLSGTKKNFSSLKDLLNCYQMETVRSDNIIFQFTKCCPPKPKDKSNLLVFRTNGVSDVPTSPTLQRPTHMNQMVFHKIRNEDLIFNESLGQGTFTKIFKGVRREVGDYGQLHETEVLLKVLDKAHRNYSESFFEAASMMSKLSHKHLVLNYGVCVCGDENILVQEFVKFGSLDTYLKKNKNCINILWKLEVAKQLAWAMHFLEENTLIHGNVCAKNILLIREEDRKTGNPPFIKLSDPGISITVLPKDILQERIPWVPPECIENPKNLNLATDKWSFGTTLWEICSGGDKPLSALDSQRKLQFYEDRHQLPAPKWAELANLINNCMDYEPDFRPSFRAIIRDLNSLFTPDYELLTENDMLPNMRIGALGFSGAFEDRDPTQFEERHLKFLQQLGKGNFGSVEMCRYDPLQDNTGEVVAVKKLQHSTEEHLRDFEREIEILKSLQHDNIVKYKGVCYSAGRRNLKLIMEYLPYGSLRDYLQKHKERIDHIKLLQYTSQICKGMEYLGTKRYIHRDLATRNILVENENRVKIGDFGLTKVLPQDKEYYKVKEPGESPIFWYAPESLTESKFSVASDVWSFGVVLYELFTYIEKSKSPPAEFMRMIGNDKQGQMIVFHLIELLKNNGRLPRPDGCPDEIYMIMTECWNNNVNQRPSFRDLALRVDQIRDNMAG
Ephrin type-A receptor 7, sequence (Q15375 whole entry): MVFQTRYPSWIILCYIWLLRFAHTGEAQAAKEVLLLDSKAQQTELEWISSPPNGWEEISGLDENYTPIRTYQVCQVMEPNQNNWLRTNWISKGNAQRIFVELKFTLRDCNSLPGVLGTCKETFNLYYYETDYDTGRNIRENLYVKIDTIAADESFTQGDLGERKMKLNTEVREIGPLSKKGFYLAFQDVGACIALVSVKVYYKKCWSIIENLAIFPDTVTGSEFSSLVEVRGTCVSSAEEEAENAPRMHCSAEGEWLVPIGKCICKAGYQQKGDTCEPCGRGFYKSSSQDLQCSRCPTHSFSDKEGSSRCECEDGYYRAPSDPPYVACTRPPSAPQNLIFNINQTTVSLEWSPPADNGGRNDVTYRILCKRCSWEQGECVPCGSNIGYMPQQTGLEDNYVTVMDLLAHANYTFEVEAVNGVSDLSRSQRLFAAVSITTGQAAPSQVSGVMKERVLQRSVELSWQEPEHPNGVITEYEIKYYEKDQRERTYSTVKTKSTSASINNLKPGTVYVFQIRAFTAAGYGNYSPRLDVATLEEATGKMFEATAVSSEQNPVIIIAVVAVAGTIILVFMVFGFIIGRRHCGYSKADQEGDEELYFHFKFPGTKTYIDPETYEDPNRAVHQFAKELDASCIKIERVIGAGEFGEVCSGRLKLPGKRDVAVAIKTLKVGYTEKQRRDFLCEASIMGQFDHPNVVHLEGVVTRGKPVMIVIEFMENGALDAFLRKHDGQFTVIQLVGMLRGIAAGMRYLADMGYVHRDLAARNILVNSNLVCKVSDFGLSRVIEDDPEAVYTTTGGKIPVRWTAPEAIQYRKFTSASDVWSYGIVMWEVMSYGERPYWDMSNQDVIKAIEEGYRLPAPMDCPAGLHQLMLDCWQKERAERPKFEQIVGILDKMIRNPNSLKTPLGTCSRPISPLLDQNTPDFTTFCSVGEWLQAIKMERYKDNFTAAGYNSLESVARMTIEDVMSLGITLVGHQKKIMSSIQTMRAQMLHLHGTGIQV
Tyrosine-protein kinase Fer, sequence (P16591 whole entry): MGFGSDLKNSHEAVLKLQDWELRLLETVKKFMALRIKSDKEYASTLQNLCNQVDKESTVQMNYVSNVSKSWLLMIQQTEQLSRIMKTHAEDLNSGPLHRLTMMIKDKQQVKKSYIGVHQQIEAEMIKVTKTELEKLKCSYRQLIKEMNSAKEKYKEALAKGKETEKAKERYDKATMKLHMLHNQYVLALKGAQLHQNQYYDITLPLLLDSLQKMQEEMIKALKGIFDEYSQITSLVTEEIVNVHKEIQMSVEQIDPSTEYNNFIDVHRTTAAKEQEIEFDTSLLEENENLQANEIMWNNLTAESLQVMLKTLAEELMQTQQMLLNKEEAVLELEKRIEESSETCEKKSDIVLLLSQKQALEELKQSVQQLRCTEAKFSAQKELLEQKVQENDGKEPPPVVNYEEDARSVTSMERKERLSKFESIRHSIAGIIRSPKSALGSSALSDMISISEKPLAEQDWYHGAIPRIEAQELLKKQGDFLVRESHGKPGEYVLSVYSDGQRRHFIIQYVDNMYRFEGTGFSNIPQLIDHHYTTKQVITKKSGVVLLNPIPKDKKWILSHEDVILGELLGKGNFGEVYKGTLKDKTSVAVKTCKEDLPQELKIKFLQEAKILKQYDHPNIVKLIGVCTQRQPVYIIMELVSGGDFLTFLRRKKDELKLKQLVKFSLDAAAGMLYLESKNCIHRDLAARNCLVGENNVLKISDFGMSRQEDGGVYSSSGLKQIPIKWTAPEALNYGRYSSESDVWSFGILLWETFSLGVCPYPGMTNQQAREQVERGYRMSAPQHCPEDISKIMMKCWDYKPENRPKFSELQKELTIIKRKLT
Tyrosine-protein kinase Lyn, sequence (P07948 whole entry): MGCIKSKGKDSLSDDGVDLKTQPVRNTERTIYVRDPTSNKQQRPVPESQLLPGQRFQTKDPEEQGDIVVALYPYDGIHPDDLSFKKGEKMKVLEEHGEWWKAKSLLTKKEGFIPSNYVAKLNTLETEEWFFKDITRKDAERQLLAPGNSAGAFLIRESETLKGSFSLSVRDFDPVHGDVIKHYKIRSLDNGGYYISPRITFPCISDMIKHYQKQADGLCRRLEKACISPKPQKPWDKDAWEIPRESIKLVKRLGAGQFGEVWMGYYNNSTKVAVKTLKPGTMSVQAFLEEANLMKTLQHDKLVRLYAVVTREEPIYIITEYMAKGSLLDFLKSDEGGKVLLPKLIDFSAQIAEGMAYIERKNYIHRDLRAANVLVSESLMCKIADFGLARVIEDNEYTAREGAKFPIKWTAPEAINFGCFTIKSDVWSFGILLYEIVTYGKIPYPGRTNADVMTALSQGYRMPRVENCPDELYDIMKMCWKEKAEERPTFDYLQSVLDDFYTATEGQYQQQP
Tyrosine-protein kinase HCK, sequence (P08631 whole entry): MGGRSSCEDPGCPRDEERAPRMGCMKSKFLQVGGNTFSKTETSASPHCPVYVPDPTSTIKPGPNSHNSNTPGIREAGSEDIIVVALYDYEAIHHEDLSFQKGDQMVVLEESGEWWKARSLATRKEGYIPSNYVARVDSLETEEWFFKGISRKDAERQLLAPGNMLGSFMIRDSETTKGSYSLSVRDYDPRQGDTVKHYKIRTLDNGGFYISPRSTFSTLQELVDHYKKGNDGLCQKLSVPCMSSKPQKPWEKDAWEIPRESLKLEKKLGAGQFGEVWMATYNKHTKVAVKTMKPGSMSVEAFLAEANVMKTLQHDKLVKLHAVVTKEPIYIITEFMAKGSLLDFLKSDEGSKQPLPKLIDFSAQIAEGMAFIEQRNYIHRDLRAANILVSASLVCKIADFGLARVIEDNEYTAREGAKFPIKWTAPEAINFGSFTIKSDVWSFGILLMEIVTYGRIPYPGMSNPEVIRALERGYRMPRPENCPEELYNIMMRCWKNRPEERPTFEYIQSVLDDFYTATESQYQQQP
Receptor-interacting serine/threonine-protein kinase 2, sequence (O43353 whole entry): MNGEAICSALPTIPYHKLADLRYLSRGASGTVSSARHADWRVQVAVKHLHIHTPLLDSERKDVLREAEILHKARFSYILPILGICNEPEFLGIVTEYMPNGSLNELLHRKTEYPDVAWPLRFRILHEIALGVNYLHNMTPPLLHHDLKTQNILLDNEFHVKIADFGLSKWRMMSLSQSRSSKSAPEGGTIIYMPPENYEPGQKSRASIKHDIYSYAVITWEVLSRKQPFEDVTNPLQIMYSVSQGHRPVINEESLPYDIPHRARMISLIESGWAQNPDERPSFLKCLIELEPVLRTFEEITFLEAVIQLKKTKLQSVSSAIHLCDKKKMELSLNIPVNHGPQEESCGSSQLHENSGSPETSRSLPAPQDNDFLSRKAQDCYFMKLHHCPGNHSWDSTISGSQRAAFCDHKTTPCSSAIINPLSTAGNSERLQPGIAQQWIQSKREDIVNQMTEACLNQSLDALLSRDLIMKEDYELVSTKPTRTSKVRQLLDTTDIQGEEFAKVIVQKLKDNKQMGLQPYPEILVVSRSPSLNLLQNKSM
Calcium/calmodulin-dependent protein kinase kinase 1, sequence (Q8N5S9 whole entry): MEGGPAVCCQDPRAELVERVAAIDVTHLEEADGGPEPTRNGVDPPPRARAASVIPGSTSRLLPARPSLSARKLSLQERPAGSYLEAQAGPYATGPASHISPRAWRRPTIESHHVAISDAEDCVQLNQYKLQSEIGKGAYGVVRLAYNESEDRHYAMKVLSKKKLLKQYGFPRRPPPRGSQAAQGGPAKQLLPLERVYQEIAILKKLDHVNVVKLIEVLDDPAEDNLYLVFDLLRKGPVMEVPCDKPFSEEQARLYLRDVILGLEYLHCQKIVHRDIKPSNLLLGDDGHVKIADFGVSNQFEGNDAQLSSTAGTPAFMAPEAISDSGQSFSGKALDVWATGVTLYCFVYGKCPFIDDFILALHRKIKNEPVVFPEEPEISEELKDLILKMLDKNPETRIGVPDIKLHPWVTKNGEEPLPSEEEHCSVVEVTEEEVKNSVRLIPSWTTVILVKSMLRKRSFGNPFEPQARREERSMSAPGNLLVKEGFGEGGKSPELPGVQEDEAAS

C#Cc1cccc(Nc2ncnc3cc(OCCOC)c(OCCOC)cc23)c1 [ERLOTINIB]
not listed: [9]
Not Active: all other assays above

Cc1ccc(NC(=O)c2ccc(CN3CCN(C)CC3)cc2)cc1Nc1nccc(-c2cccnc2)n1 [IMATINIB]
not listed: [3] | [4]
Not Active: all other assays above

O=c1ncn2nc(Sc3ccc(F)cc3F)ccc2c1-c1c(Cl)cccc1Cl [NEFLAMAPIMOD]
not listed: [1] | [3]
Not Active: all other assays above

CCOc1cc2ncc(C#N)c(Nc3ccc(F)c(Cl)c3)c2cc1NC(=O)/C=C/CN(C)C [PELITINIB]
Not Active: [9] | [4] | [6] | [7]

Oc1ccc(-c2nc(-c3ccc(F)cc3)c(-c3ccncc3)[nH]2)cc1 [SB-202190]
not listed: [9]
Not Active: all other assays above

C[S+]([O-])c1ccc(-c2nc(-c3ccc(F)cc3)c(-c3ccncc3)[nH]2)cc1 (stereo not drawn) [SB-203580]
not listed: [9]
Not Active: all other assays above

CC[C@H](CO)Nc1nc(NCc2ccccc2)c2ncn(C(C)C)c2n1 [SELICICLIB]
Not Active: all assays above

Oc1c2ccccc2c2c3c(cccc13)N=N2 [SP-600125]
not listed: [4]
Not Active: all other assays above

COc1cc2c(N3CCN(C(=O)Nc4ccc(OC(C)C)cc4)CC3)ncnc2cc1OCCCN1CCCCC1 [TANDUTINIB]
Not Active: all assays above
